Entries after “also recorded” stand apart in the source; their conditions may differ.
Tests used:
[1] = Na+, K+, Cl-, H+ efflux from liposomes; assay type: biochemical; details: 1:1000 AmB:lipid, vs DMSO vehicle
Description: Palmitoyl oleoyl phosphatidylcholine (POPC) was obtained as a 25 mg/mL solution in CHCl3 from Avanti Polar Lipids (Alabaster, AL) and was stored at −20° C. under an atmosphere of dry argon and used within 3 months. Cholesterol (Sigma Aldrich) was purified by recrystallization from ethanol. NaH^13CO3 was obtained as a white solid from Sigma Aldrich. Sodium, potassium, and chloride measurements were obtained using a Denver Instruments (Denver, CO) Model 225 pH meter equipped with the appropriate ion selective probe inside a Faraday cage. Sodium selective measurements were obtained using an Orion micro sodium electrode (Thermo 9811BN). Potassium selective measurements were obtained with an Orion Potassium Sure-Flow Combination Electrode with Waterproof BNC connector (Thermo 9719BNWP). Chloride selective measurements were obtained using an Orion combination chloride electrode (Thermo 9617BNWP). For sodium efflux experiments, measurements were made on 1.5 mL solutions that were magnetically stirred in 7 mL vials incubated at 23° C. […]
Prior to preparing a lipid film, this solution was warmed to ambient temperature to prevent condensation from contaminating the solution and degrading the lipid film. […] To obtain a sufficient quantity of large unilamellar vesicles (LUVs), at least two independent lipid film preparations were pooled together for the subsequent formation of LUVs. […]

[2] = test system: ASL of primary CF epithelia; Staphylococcus aureus killed; assay: ASL antibacterial activity (S. aureus-coated gold grids); assay type: cell-based, human; details: 2 μM, 48 h
Description: (§1) Staphylococcus aureus-coated gold grids were used to measure antibacterial activity of airway epithelial cultures (3, 4). Small diameter primary cultured epithelia were used for this experiment (0.33 cm^2). Bacteria-coated gold TEM grids were placed onto the apical surface of airway epithelia for 1 min after 48 hours of perfluorocarbon (FC-72, Sigma), 2 μM AmB, or 2 μM C35deOAmB treatment. As controls, bacteria-coated grids were also placed in saline or AmB in FC-72 laid over saline to simulate the administration method for 1 minute. After removal, bacteria on the grids were assessed for viability using Live/Dead BacLight Bacterial Viability assay (Invitrogen). Viability was determined in 4-6 fields to determine the percentages of dead bacteria.

Staphylococcus aureus = assay: Direct killing of S. aureus by AmB alone; assay type: cell-based; details: AmB 2 μM alone vs saline
Description: as §1

C[C@@H]1[C@H](O)[C@@H](C)/C=C/C=C/C=C/C=C/C=C/C=C/C=C/[C@H](O[C@@H]2O[C@H](C)[C@@H](O)[C@H](N)[C@@H]2O)C[C@@H]2O[C@](O)(C[C@@H](O)C[C@@H](O)[C@H](O)CC[C@@H](O)C[C@@H](O)CC(=O)O[C@H]1C)C[C@H](O)[C@H]2C(=O)O [AmB, amphotericin B]
transport of potassium, sodium, chloride, protons across a lipid membrane [1]: known to transport monovalent anions and cations; also recorded: can transport potassium, sodium, chloride, protons and HCO3^− | ASL antibacterial activity (% of S. aureus killed after exposure to ASL) [2]: increased antibacterial activity for a diverse range of patient genotypes; also recorded: nearly doubled ASL bacterial killing; also recorded: restores ASL pH and antibacterial activity | direct antibacterial activity against S. aureus (Staphylococcus aureus): insensitive to direct killing by AmB; also recorded: does not have antibacterial activity against S. aureus
